# Test results from patent US4564614A, “Antiinflammatory methods” (priority 1985, dated 1986).
# Columns and labels:
# [1] = system: piroxicam-induced gastric lesions; assay: animal or person; format: in vivo, rat (CD strain, Sprague-Dawley); conditions: for Lesions/Rat (mean +/- SE): with 120 mg/kg ethanolamine salt of piroxicam; for Significance p < 0.05: Student's two-tailed t test vs piroxicam-only control; for reduction of piroxicam-induced gastric lesions: healthy fasted rat
# Protocol: Adult male "specific pathogen free" rats weighing 140-160 grams of the CD strain (Sprague-Dawley) were obtained from Charles River Breeding Laboratories (Kingston, N.Y.) The animals were acclimated for approximately one week and tested when they reached a body weight of 200-225 grams. The rats were fasted for 16 hours and randomized into groups consisting of 8 to 20 animals which were normalized with regard to their average body weight.
# Gastric ulcers were induced in the animals by orally dosing them with a single 120 mg/kg dose of piroxicam (ethanolamine salt) in 2 ml. of aqueous 0.1% methylcellulose (pH=6.8). Those animals receiving a second medicinal agent separately received the second drug in an additional 2 ml. of the same medium at about the same time. Six and one-half hours later, the animals were sacrificed by cervical dislocation and autopsied. The stomachs were surgically removed, dissected along the greater curvature and rinsed with cold water. The stomachs were individually scored for both linear and punctuate lesions. The total number of lesions was used for scoring purposes. The data obtained from each group of rats was analyzed after calculation of the mean number ± the standard error of total gastric lesions. The values obtained were also compared to the controls which received only piroxicam by the two-tailed Student's T-Test for non-paired data.
# rheumatoid arthritis = conditions: 50-150 mg/day for 3 months, rheumatoid arthritis patients, most taking aspirin; cited from earlier work
# [2] = 50-150 mg/day for 3 months, rheumatoid arthritis patients; cited from earlier work
# ulcers = conditions: 1.1 mg/kg, injection; cited from earlier work
# gastric ulcers = conditions: subcutaneous injection; cited from earlier work
smiles,measurement,setting,value
"Cc1ncc(CO)c(CO)c1O.Cl [Pyridoxine Hydrochloride, pyridoxine hydrochloride]",Lesions/Rat (mean +/- SE),"[1]; 3.3 mg/kg oral, 10 rats",7.0 (1.1)
same,Lesions/Rat (mean +/- SE),"[1]; 10 mg/kg oral, 30 rats",4.2 (1.2)
same,Lesions/Rat (mean +/- SE),"[1]; 33 mg/kg oral, 50 rats",3.9 (1.1)
same,Significance p < 0.05,[1]; 33 mg/kg oral,+ (p < 0.05)
same,Lesions/Rat (mean +/- SE),"[1]; 100 mg/kg oral, 20 rats",2.7 (1.1)
same,Significance p < 0.05,[1]; 100 mg/kg oral,+ (p < 0.05)
same,ED50,"[1]; Rattus norvegicus, 6.5 h, oral, linear regression analysis, 120 mg/kg ethanolamine salt of piroxicam, read-out: ED50 (dose required to inhibit 50% of control gastric lesion)",33 mg/kg
same,clinical improvements in the disease,rheumatoid arthritis,no clinical improvements
same,increase in plasma levels of pyridoxal phosphate,[2],2-5 fold
"Cc1ncc(CO)c(CO)c1O [Pyridoxine, pyridoxine]",frequency of ulcers,ulcers,reduce the frequency of ulcers
same,healing of gastric ulcers,gastric ulcers,not promote the healing
same,pain of gastric ulcers,gastric ulcers,alleviate the pain
CC(=O)Nc1ccc(O)cc1 [acetaminophen],reduction of piroxicam-induced gastric lesions,[1],significantly reduce
CN(C)CCC=C1c2ccccc2COc2ccccc21 [doxepin],reduction of piroxicam-induced gastric lesions,[1],significantly reduce
c1ccc(CCNc2nc(-c3ccccc3)cs2)cc1 [fanetizole],reduction of piroxicam-induced gastric lesions,[1],significantly reduce
CC(C)(C)NCC(O)c1ccc(O)c(CO)n1 (centres unmarked) [pirbuterol],reduction of piroxicam-induced gastric lesions,[1],significantly reduce
CN1C(=O)CN=C(c2ccccc2)c2cc(Cl)ccc21 [diazepam],reduction of piroxicam-induced gastric lesions,[1],significantly reduce
